{"source": "the supplement of paper PMC10307832", "test_in_all_cases": "relative viability (nuclei count vs DMSO), 5 days (fraction); higher = more cells survive", "key": {"[1]": {"compound": "C1CN(CCC1C(C2=CC3=C(C=C2)OCO3)(C4=CC5=C(C=C4)OCO5)O)C(=O)OC6=CC=C(C=C6)[N+](=O)[O-] [JZL-184]", "in_short": "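Following overnight incubation at 37 °C, lung cancer cell lines in 1536-well plates were pinned with five library-drug doses (not always all listed) in √10 steps on vehicle-anchored plates. The cells then spent 5 days without medium change before a combined fix, permeabilisation and Hoechst stain, 4× imaging and MetaXpress nuclear counts. Viability is the treated-to-vehicle ratio of nuclei, taken as the median across plates. Only plates with control CV below 25% and at least one doubling passed.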"}, "[2]": {"compound": "C1CN(CCC1C(C2=CC3=C(C=C2)OCO3)(C4=CC5=C(C=C4)OCO5)O)C(=O)OC6=CC=C(C=C6)[N+](=O)[O-] [JZL-184] + O=C(c1cc(Cc2n[nH]c(=O)c3ccccc23)ccc1F)N1CCN(C(=O)C2CC2)CC1 [Olaparib] (partner 8 µM)", "in_short": "(§1)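 Cells from lung cancer lines were seeded into 1536-well plates and, one day later, dosed by pin tool. Treatments were either a single drug or a fixed dose of an anchor drug with five library-drug doses (not always all listed) in √10 steps. After 5 days, nuclei were stained in a one-step fixation (final 0.05% Triton X-100, 1% formaldehyde, 1 ug/ml Hoechst) and counted on 4× images, and relative viability is the treated-to-vehicle nuclei ratio, as the median of duplicate plates.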"}, "[3]": {"compound": "C1CN(CCC1C(C2=CC3=C(C=C2)OCO3)(C4=CC5=C(C=C4)OCO5)O)C(=O)OC6=CC=C(C=C6)[N+](=O)[O-] [JZL-184] + CS(=O)(=O)N1CCN(Cc2cc3nc(-c4cccc5[nH]ncc45)nc(N4CCOCC4)c3s2)CC1 [Pictilisib] (partner 1 µM)", "in_short": "as §1"}, "[4]": {"compound": "C1CN(CCC1C(C2=CC3=C(C=C2)OCO3)(C4=CC5=C(C=C4)OCO5)O)C(=O)OC6=CC=C(C=C6)[N+](=O)[O-] [JZL-184] + COc1cc2c(Oc3ccc(NC(=O)C4(C(=O)Nc5ccc(F)cc5)CC4)cc3F)ccnc2cc1OCCCN1CCOCC1 [Foretinib] (partner 0.25 µM)", "in_short": "as §1"}, "[5]": {"compound": "C1CN(CCC1C(C2=CC3=C(C=C2)OCO3)(C4=CC5=C(C=C4)OCO5)O)C(=O)OC6=CC=C(C=C6)[N+](=O)[O-] [JZL-184] + CC1(C)CCC(c2ccc(Cl)cc2)=C(CN2CCN(c3ccc(C(=O)NS(=O)(=O)c4ccc(N[C@H](CCN5CCOCC5)CSc5ccccc5)c(S(=O)(=O)C(F)(F)F)c4)cc3)CC2)C1 [Navitoclax] (partner 0.5 µM)", "in_short": "as §1"}, "[6]": {"compound": "C1CN(CCC1C(C2=CC3=C(C=C2)OCO3)(C4=CC5=C(C=C4)OCO5)O)C(=O)OC6=CC=C(C=C6)[N+](=O)[O-] [JZL-184] + CS(=O)(=O)CCNCc1ccc(-c2ccc3ncnc(Nc4ccc(OCc5cccc(F)c5)c(Cl)c4)c3c2)o1 [Lapatinib] (partner 2 µM)", "in_short": "as §1"}, "[7]": {"compound": "C1CN(CCC1C(C2=CC3=C(C=C2)OCO3)(C4=CC5=C(C=C4)OCO5)O)C(=O)OC6=CC=C(C=C6)[N+](=O)[O-] [JZL-184] + Cc1nc(NC(=O)N2CCC[C@H]2C(N)=O)sc1-c1ccnc(C(C)(C)C(F)(F)F)c1 [Alpelisib] (partner 2 µM)", "in_short": "as §1"}, "[8]": {"compound": "C1CN(CCC1C(C2=CC3=C(C=C2)OCO3)(C4=CC5=C(C=C4)OCO5)O)C(=O)OC6=CC=C(C=C6)[N+](=O)[O-] [JZL-184] + C[C@]1(O)C[C@@H](c2nc(-c3ccc4ccc(-c5ccccc5)nc4c3)c3c(N)nccn32)C1 [Linsitinib] (partner 1 µM)", "in_short": "as §1"}, "[9]": {"compound": "C1CN(CCC1C(C2=CC3=C(C=C2)OCO3)(C4=CC5=C(C=C4)OCO5)O)C(=O)OC6=CC=C(C=C6)[N+](=O)[O-] [JZL-184] + CC(C)C[C@H](NC(=O)[C@H](Cc1ccccc1)NC(=O)c1cnccn1)B(O)O [Bortezomib] (partner 0.002 µM)", "in_short": "as §1"}, "[10]": {"compound": "C1CN(CCC1C(C2=CC3=C(C=C2)OCO3)(C4=CC5=C(C=C4)OCO5)O)C(=O)OC6=CC=C(C=C6)[N+](=O)[O-] [JZL-184] + C[C@@H](Oc1cc(-c2cnn(C3CCNCC3)c2)cnc1N)c1c(Cl)ccc(F)c1Cl [Crizotinib] (partner 1 µM)", "in_short": "as §1"}}, "data": [{"cell line": "Calu-6", "values": [{"measurement": "relative viability", "setting": "[1]; 0.04 µM", "result": 1.05}, {"measurement": "relative viability", "setting": "[1]; 0.4 µM", "result": 0.981}, {"measurement": "relative viability", "setting": "[1]; 1.265 µM", "result": 1.01}, {"measurement": "relative viability", "setting": "[1]; 4 µM", "result": 0.971}, {"measurement": "relative viability", "setting": "[2]; first compound 0.04 µM", "result": 0.565}, {"measurement": "relative viability", "setting": "[2]; first compound 0.4 µM", "result": 0.495}, {"measurement": "relative viability", "setting": "[2]; first compound 1.265 µM", "result": 0.534}, {"measurement": "relative viability", "setting": "[2]; first compound 4 µM", "result": 0.623}, {"measurement": "relative viability", "setting": "[3]; first compound 0.04 µM", "result": 0.993}, {"measurement": "relative viability", "setting": "[3]; first compound 0.4 µM", "result": 0.865}, {"measurement": "relative viability", "setting": "[3]; first compound 1.265 µM", "result": 1}, {"measurement": "relative viability", "setting": "[3]; first compound 4 µM", "result": 0.91}, {"measurement": "relative viability", "setting": "[4]; first compound 0.04 µM", "result": 0.946}, {"measurement": "relative viability", "setting": "[4]; first compound 0.4 µM", "result": 0.83}, {"measurement": "relative viability", "setting": "[4]; first compound 1.265 µM", "result": 0.887}, {"measurement": "relative viability", "setting": "[4]; first compound 4 µM", "result": 0.855}, {"measurement": "relative viability", "setting": "[5]; first compound 0.04 µM", "result": 0.845}, {"measurement": "relative viability", "setting": "[5]; first compound 0.4 µM", "result": 0.807}, {"measurement": "relative viability", "setting": "[5]; first compound 1.265 µM", "result": 0.852}, {"measurement": "relative viability", "setting": "[5]; first compound 4 µM", "result": 0.798}, {"measurement": "relative viability", "setting": "[6]; first compound 0.04 µM", "result": 1.14}, {"measurement": "relative viability", "setting": "[6]; first compound 0.4 µM", "result": 1.04}, {"measurement": "relative viability", "setting": "[6]; first compound 1.265 µM", "result": 1.02}, {"measurement": "relative viability", "setting": "[6]; first compound 4 µM", "result": 1.1}, {"measurement": "relative viability", "setting": "[7]; first compound 0.04 µM", "result": 1.17}, {"measurement": "relative viability", "setting": "[7]; first compound 0.4 µM", "result": 0.984}, {"measurement": "relative viability", "setting": "[7]; first compound 1.265 µM", "result": 0.98}, {"measurement": "relative viability", "setting": "[7]; first compound 4 µM", "result": 0.886}, {"measurement": "relative viability", "setting": "[8]; first compound 0.04 µM", "result": 0.984}, {"measurement": "relative viability", "setting": "[8]; first compound 0.4 µM", "result": 0.95}, {"measurement": "relative viability", "setting": "[8]; first compound 1.265 µM", "result": 0.985}, {"measurement": "relative viability", "setting": "[8]; first compound 4 µM", "result": 0.906}, {"measurement": "relative viability", "setting": "[9]; first compound 0.04 µM", "result": 1.11}, {"measurement": "relative viability", "setting": "[9]; first compound 0.4 µM", "result": 0.925}, {"measurement": "relative viability", "setting": "[9]; first compound 1.265 µM", "result": 1}, {"measurement": "relative viability", "setting": "[9]; first compound 4 µM", "result": 1.06}, {"measurement": "relative viability", "setting": "[10]; first compound 0.04 µM", "result": 1.08}, {"measurement": "relative viability", "setting": "[10]; first compound 0.4 µM", "result": 0.709}, {"measurement": "relative viability", "setting": "[10]; first compound 1.265 µM", "result": 0.776}, {"measurement": "relative viability", "setting": "[10]; first compound 4 µM", "result": 0.784}]}, {"cell line": "EBC-1", "values": [{"measurement": "relative viability", "setting": "[1]; 0.04 µM", "result": 1.06}, {"measurement": "relative viability", "setting": "[1]; 0.4 µM", "result": 0.992}, {"measurement": "relative viability", "setting": "[1]; 1.265 µM", "result": 0.995}, {"measurement": "relative viability", "setting": "[1]; 4 µM", "result": 1.03}, {"measurement": "relative viability", "setting": "[2]; first compound 0.04 µM", "result": 0.655}, {"measurement": "relative viability", "setting": "[2]; first compound 0.4 µM", "result": 0.744}, {"measurement": "relative viability", "setting": "[2]; first compound 1.265 µM", "result": 0.671}, {"measurement": "relative viability", "setting": "[2]; first compound 4 µM", "result": 0.666}, {"measurement": "relative viability", "setting": "[3]; first compound 0.04 µM", "result": 0.347}, {"measurement": "relative viability", "setting": "[3]; first compound 0.4 µM", "result": 0.287}, {"measurement": "relative viability", "setting": "[3]; first compound 1.265 µM", "result": 0.506}, {"measurement": "relative viability", "setting": "[3]; first compound 4 µM", "result": 0.364}, {"measurement": "relative viability", "setting": "[4]; first compound 0.04 µM", "result": 0.101}, {"measurement": "relative viability", "setting": "[4]; first compound 0.4 µM", "result": 0.0992}, {"measurement": "relative viability", "setting": "[4]; first compound 1.265 µM", "result": 0.0837}, {"measurement": "relative viability", "setting": "[4]; first compound 4 µM", "result": 0.106}, {"measurement": "relative viability", "setting": "[5]; first compound 0.04 µM", "result": 0.442}, {"measurement": "relative viability", "setting": "[5]; first compound 0.4 µM", "result": 0.427}, {"measurement": "relative viability", "setting": "[5]; first compound 1.265 µM", "result": 0.45}, {"measurement": "relative viability", "setting": "[5]; first compound 4 µM", "result": 0.342}, {"measurement": "relative viability", "setting": "[6]; first compound 0.04 µM", "result": 0.176}, {"measurement": "relative viability", "setting": "[6]; first compound 0.4 µM", "result": 0.239}, {"measurement": "relative viability", "setting": "[6]; first compound 1.265 µM", "result": 0.204}, {"measurement": "relative viability", "setting": "[6]; first compound 4 µM", "result": 0.209}, {"measurement": "relative viability", "setting": "[7]; first compound 0.04 µM", "result": 0.982}, {"measurement": "relative viability", "setting": "[7]; first compound 0.4 µM", "result": 0.795}, {"measurement": "relative viability", "setting": "[7]; first compound 1.265 µM", "result": 0.802}, {"measurement": "relative viability", "setting": "[7]; first compound 4 µM", "result": 0.754}, {"measurement": "relative viability", "setting": "[8]; first compound 0.04 µM", "result": 0.971}, {"measurement": "relative viability", "setting": "[8]; first compound 0.4 µM", "result": 0.848}, {"measurement": "relative viability", "setting": "[8]; first compound 1.265 µM", "result": 0.929}, {"measurement": "relative viability", "setting": "[8]; first compound 4 µM", "result": 0.832}, {"measurement": "relative viability", "setting": "[9]; first compound 0.04 µM", "result": 0.595}, {"measurement": "relative viability", "setting": "[9]; first compound 0.4 µM", "result": 0.514}, {"measurement": "relative viability", "setting": "[9]; first compound 1.265 µM", "result": 0.558}, {"measurement": "relative viability", "setting": "[9]; first compound 4 µM", "result": 0.455}, {"measurement": "relative viability", "setting": "[10]; first compound 0.04 µM", "result": 0.21}, {"measurement": "relative viability", "setting": "[10]; first compound 0.4 µM", "result": 0.189}, {"measurement": "relative viability", "setting": "[10]; first compound 1.265 µM", "result": 0.195}, {"measurement": "relative viability", "setting": "[10]; first compound 4 µM", "result": 0.193}]}]}
